# Reference: patent publication EP0121352A1, “A leader sequence to promote the secretion of gene products” (priority 1983, dated 1984)
# How the values were obtained:
# [1] = target: T1, Carboxypeptidase G2 (CPG2) purified from E.coli clone pNM21 (cloned gene from Pseudomonas species strain RS-16) (Pseudomonas sp., UniProt P06621); assay: Km determination of purified carboxypeptidase G2 synthesised in E.coli (cloned gene product), methotrexate as substrate; type: biochemical, Pseudomonas species strain RS-16 (expressed in E.coli); conditions: CPG2 purified from E.coli carrying pNM21; read-out: Km vallues using methotrexate as substrate
# T1 construct: Amino acids 23 to 415 are the CPG2 structural gene; made in house; host or cells: E. coli W5445 carrying plasmid pNM21
# T1 sequence (P06621 23-415): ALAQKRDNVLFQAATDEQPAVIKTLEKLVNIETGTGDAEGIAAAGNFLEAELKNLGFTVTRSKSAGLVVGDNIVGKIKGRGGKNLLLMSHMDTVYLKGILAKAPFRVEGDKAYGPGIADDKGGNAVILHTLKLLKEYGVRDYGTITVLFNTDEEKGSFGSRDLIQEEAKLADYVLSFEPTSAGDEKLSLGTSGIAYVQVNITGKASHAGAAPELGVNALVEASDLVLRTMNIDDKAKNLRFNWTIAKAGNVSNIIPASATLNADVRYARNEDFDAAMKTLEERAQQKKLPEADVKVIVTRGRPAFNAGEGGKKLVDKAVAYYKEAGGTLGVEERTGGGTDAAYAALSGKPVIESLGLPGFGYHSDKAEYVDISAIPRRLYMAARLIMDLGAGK
# Experimental: (§1) CPG2 activity was determined after J L McCullough et al, J.Biol.Chem, 1971, 246, 7207. A.lml reaction cuvette containing 0.9 ml of 0.1 M Tris-HCl, pH 7.3 plus 0.2 mM ZnSO4 and 0.1 ml of 0.6 mM methotrexate was equilibrated at 37°C. Enzyme extract was added to the test cuvette and the decrease in absorbance at 320 nm measured using a Pye-Unicam SP1800 double-beam spectrophotometer. Enzyme activity per ml extract was calculated as Δ 320 nm absorbance/min divided by 8.3, which is equivalent to the hydrolysis of 1 µmol of MTX/min at 37°C.
# (§2) To determine whether the cloned gene= product in E.coli had the same properties as CPG2 from the pseudomonad, enzyme was purified from E.coli carrying pNM21.
# [2] = target: Carboxypeptidase G2 (CPG2) from Pseudomonas strain RS-16 (Pseudomonas sp., UniProt P06621); conditions: read-out: Km vallues using methotrexate as substrate
# Chain of Carboxypeptidase G2 (CPG2) from Pseudomonas strain RS-16 (P06621 23-415): as above
# Experimental: as §1, §2
compound,measurement,setting,value
CN(Cc1cnc2nc(N)nc(N)c2n1)c1ccc(C(=O)N[C@@H](CCC(=O)O)C(=O)O)cc1 [methotrexate],Km,[1],7.4 µM
same,Km,[2],8 µM
